# Reference: paper PMC2639705, “Two Chromogranin A-Derived Peptides Induce Calcium Entry in Human Neutrophils by Calmodulin-Regulated Calcium Independent Phospholipase A2” (PLoS ONE, 2009)
# Entries after “also recorded” stand apart in the source; their conditions may differ. Like-named read-outs stand apart in the source and are kept apart here. Positions of bridges follow the written chain, without caps; N, C: chain ends. No end group written: not given here. rhodamine = not defined here
# Experiments:
# PMNs [1] = test: Time-lapse intracellular Ca2+ imaging (Fura-2), with SOC/ARC blockers and iPLA2/PLA2 inhibitors; type: cell-based, human; conditions: for Ca2+ influx induced by CaM antagonists: 30 µM W7 or 1 µM CMZ
# SOCs = tested on: SOCs; set-up: method as in PMID 15280576, PMID 15951181, PMID 17003039; conditions: ref [42]–[44]; cited from earlier work
# iPLA2 = iPLA2 activity assay (modified cPLA2 assay kit); type: biochemical, human; conditions: 20 µM CHR, 20 µM CAT, 1 µM CMZ or 50 µM W7, 30 min at 37°C; absorbance 405 nm per mg protein; two experiments in triplicate
# Method: C) iPLA2 activity assay: Stimulation of iPLA2 activity after treatment by 20 µM CHR or 20 µM CAT for 30 min at 37°C and comparison with the effects of two CaM-binding factors (1 µM CMZ, 50 µM W7) and one iPLA2 inhibitor (25 µM BEL). Activity of iPLA2 is expressed as the absorbance (Abs/mg of protein) at λ405 nm.
# PMNs (3.10^8) were collected, sonicated 3 times for 10 s with a 15 s break between cycles, and centrifuged at 15,000× g for 20 min at 4°C. The supernatant was removed and kept on ice. After determination of the protein concentration (Bradford assay), iPLA2 activity measurement was obtained in presence of different peptide concentrations using the cPLA2 assay kit, according to the modified method previously reported (cPLA2 assay kit, Caymen chemical), [36]. Results were from two similar experiments, each performed in triplicates.
# human PMNs = test: Flow cytometry, Ca2+ influx in Fluo-3-loaded PMNs; type: cell-based; conditions: for Ca2+ influx: human PMNs, Fluo-3, 20 µM peptide (or tryptic digest of 20 µM CAT/CHR), presence of extracellular Ca2+ (1 mM; 1.1 mM CaCl2 at t = 620 s), at least triplicates
# PMNs [2] = test: HPLC and NanoLC-MS/MS proteomic analysis of PMN secretions induced by CHR and CAT; conditions: trypsin, protein threshold 1 peptide score > 52 or at least 2 peptides with score >20
# pancreatic beta-cells = conditions: ref [2]; cited from earlier work
# Source text: Chromogranin A (CgA) is a well-studied member of the chromogranin/secretogranin family, present in secretory cells of the nervous, endocrine and immune systems. CgA was the first chromogranin to be characterized as an acidic protein co-stored and co-released with the catecholamine hormones from the chromaffin cells of the adrenal medulla. […] Numerous endogenous cl ...
# PMNs [3] = test: Confocal microscopy, uptake of rhodamine-labelled peptides into PMNs; type: cell-based, human; conditions: 20 µM rhodamine-labelled peptide, 2 min, PBS pH 7.4, room temperature, confocal microscopy after paraformaldehyde fixation
# Method: PMNs (1.10^6/mL) were incubated 2 min at room temperature (RT) with rhodamine-labelled peptides (20 µM) in Phosphate Buffered Saline consisting of 10.5 mM KH2PO4, 30 mM Na2HPO4, 0.154 M NaCl, pH 7.4, washed and subsequently centrifuged by cytospins of 1–2.10^5 isolated PMNs onto glass slides (300 rpm, 10 min, RT). Cytospins were fixed with 4% (v/v) paraformaldehyde in PBS at RT for 20 min, then incubated with Draq-5 (dilution1∶500, Biostatus Limited., Leicestershire, UK) for 15 min. Stained cells were monitored with a Zeiss LSM 510 laser scanning microscope (Zeiss, Iena, Germany) equipped with a Planapo oil immersion objective (×63, numerical aperture 1.4).
# calmodulin (CaM) = test: Surface Plasmon Resonance, CaM binding to immobilized peptides; conditions: pH 6.5
# Method: Figure 5 Interaction of CHR and CAT with calmodulin (CaM). A) Fluorescence confocal microscopy of PMNs after incubation during 120 s with 20 µM rhodamine-labeled peptides (Rho-CHR or Rho-CAT). Control peptide: 20 µM rhodamine labeled Hippocampal Cholinergic Neurostimulating Peptide (Rho-HCNP). The PMNs nuclei were labeled with Draq-5. B) Alignment of the CHR and CAT sequences with two CaM binding motifs 1-8-14 B and 1-5-10. The alignment has been obtained manually so that hydrophobic residues occupy invariant positions shown with boldface letters. The net positive charge is also indicated. C) (1) Interactions between CaM, CAT and CHR by Surface Plasmon Resonance (SPR) Peptides were immobilized on a CM5 Biacore chip using amine-coupling chemistry. CaM (5 µM) was added at arrow and allowed to stabilize for 10 min. Dissociation by washing was recorded for the following 10 min. All measurements were performed at 20°C. The resulting sensorgrams were analyzed using BIAevaluation Software. (2) Calmodulin-Affinity Chromatography of CHR and CAT. The retained and eluted peptides were immunodetected by dot blot with anti-CHR (monoclonal anti-CgA47–68) and anti-CAT (polyclonal anti-CgA344–364). […]
# Experiments were conducted on a Biacore 3000™ (GE Healthcare) and peptides were immobilized on a CM5 Biacore chip using amine-coupling. […] Sensorgrams were analyzed by using BIAevaluation Software.
compound,measurement,setting,value
"NCCOB(c1ccccc1)c1ccccc1 [2-APB, 2-aminoethyl diphenylborinate]",inhibition of AA-induced Ca2+ influx,PMNs [1],insensitive to 2-APB
same,inhibition of CAT-induced Ca2+ entry,PMNs [1],completely blocked the entry of extracellular Ca^2+; also recorded: inhibits completely the calcium entry; also recorded: abolished the transient Ca^2+ influx induced by CHR or CAT similarly to 2-APB
same,inhibition of CHR-induced Ca2+ entry,PMNs [1],completely blocked the entry of extracellular Ca^2+; also recorded: inhibits completely the calcium entry; also recorded: abolished the transient Ca^2+ influx induced by CHR or CAT similarly to 2-APB
same,suppression of CMZ-induced Ca2+ influx,PMNs [1],significantly suppressed
same,suppression of W7-induced Ca2+ influx,PMNs [1],significantly suppressed
"CCCCC/C=C\C/C=C\C/C=C\C/C=C\CCCC(=O)O [AA, Arachidonic Acid]",Ca2+ influx induced by AA,"PMNs [1]; PMNs, Fura-2, 50 µM AA, 2.5 mM CaCl2",calcium influx induced by 50 µM AA
"O=C1O/C(=C/Br)CCC1c1cccc2ccccc12 (stereo not shown) [BEL, Bromoenol lactone]",inhibition of CAT-induced Ca2+ entry,"PMNs [1]; PMNs, Fura-2, 20 µM CAT, 2.5 mM CaCl2, 100 µM 2-APB (2 min), 25 µM BEL (30 min) or 10 µM BPB (10 min) before peptide",abolished the transient Ca^2+ influx
same,inhibition of CHR-induced Ca2+ entry,"PMNs [1]; PMNs, Fura-2, 20 µM CHR, 2.5 mM CaCl2, 100 µM 2-APB (2 min), 25 µM BEL (30 min) or 10 µM BPB (10 min) before peptide",abolished the transient Ca^2+ influx
same,suppression of CMZ-induced Ca2+ influx,"PMNs [1]; PMNs, Fura-2, 37°C, 1 µM CMZ, 25 µM BEL (30 min), 10 µM BPB (10 min) or 100 µM 2-APB (2 min) before",significantly suppressed
same,suppression of W7-induced Ca2+ influx,"PMNs [1]; PMNs, Fura-2, 37°C, 30 µM W7, 25 µM BEL (30 min), 10 µM BPB (10 min) or 100 µM 2-APB (2 min) before",significantly suppressed
"Clc1ccc(C(c2ccc(Cl)cc2)n2cc[n+](CC(OCc3ccc(Cl)cc3Cl)c3ccc(Cl)cc3Cl)c2)cc1 (stereo not shown) [CMZ, calmidazolium]",direct activation of SOCs,SOCs,may directly activate SOCs without the release of intracellular Ca^2+ stores
same,stimulation of iPLA2 enzymatic activity in PMNs,iPLA2,stimulated
same,Ca2+ influx induced by CaM antagonists,"PMNs [1]; PMNs, Fura-2, 37°C",induced longer lasting rises in influx
"[Cl][Gd]([Cl])[Cl] [Gd^3+, gadolinium chloride]",inhibition of AA-induced Ca2+ influx,PMNs [1],inhibited by gadolinium chloride (Gd^3+)
"NCCCCCCNS(=O)(=O)c1cccc2c(Cl)cccc12 [W7, N-(6-aminohexyl)-5-chloro-l-naphthalenesulfonamide]",stimulation of iPLA2 enzymatic activity in PMNs,iPLA2,stimulated
same,Ca2+ influx induced by CaM antagonists,"PMNs [1]; PMNs, Fura-2, 37°C",induced longer lasting rises in influx
"ALQGAKERTHQQ [CgA65–76, the natural peptide CgA65–76 (…)]",Ca2+ influx,human PMNs,failed to affect the Ca^2+ influx
CIVEVISDTLSKPSPMPVSKEC (disulfide 1-22 (inferred)) [CgA17–40],Ca2+ influx,human PMNs,failed to affect the Ca^2+ influx
"Castestatin (SSMKLSFRARAYGFRGPGPQL; Catestatin; UniProt P10645 370-390, looked up)",Protein identified in PMN secretion (Protein name),"PMNs [2]; sample Castestatin_1, Mascot",Protein S100-A9 - Homo sapiens (Human); also recorded: Protein S100-A12 - Homo sapiens (Human)
same,Protein identified in PMN secretion (Protein name),"PMNs [2]; sample Castestatin_6, Mascot","Actin, cytoplasmic 1 - Homo sapiens (Human)"
same,Protein identified in PMN secretion (Protein name),"PMNs [2]; sample Castestatin_7, Mascot","Actin, cytoplasmic 1 - Homo sapiens (Human)"
same,Protein identified in PMN secretion (Protein name),"PMNs [2]; sample Castestatin_8, Mascot",Hemoglobin subunit alpha - Homo sapiens (Human)
same,Protein identified in PMN secretion (Protein name),"PMNs [2]; sample Castestatin_9, Mascot",Hemoglobin subunit beta - Homo sapiens (Human)
same,Protein identified in PMN secretion (Protein name),"PMNs [2]; sample Castestatin_10, Mascot",High mobility group protein B2 - Homo sapiens (Human); also recorded: Hemoglobin subunit beta - Homo sapiens (Human)
same,Protein identified in PMN secretion (Protein name),"PMNs [2]; sample Castestatin_11, Mascot",Heterogeneous nuclear ribonucleoproteins A2/B1 - Homo sapiens (Human); also recorded: Phosphatidylethanolamine-binding protein 1 - Homo sapiens (Human); also recorded: Heterogeneous nuclear ribonucleoprotein A1 - Homo sapiens (Human); also recorded: Filamin-A - Homo sapiens (Human); also recorded: Low affinity immunoglobulin gamma Fc region receptor III-B precursor - Homo sapiens (Human); also recorded: Alpha-1-acid glycoprotein 1 precursor - Homo sapiens (Human); also recorded: Haptoglobin precursor [Contains: Haptoglobin alpha chain; Haptoglobin beta chain] - Homo sapiens (Human); also recorded: SH3 domain-binding glutamic acid-rich-like protein - Homo sapiens (Human)
"NSPMNKGDTEVMK [CgA4–16, peptide derived from the N-terminal CgA domain (…)]",Ca2+ influx,human PMNs,failed to affect the Ca^2+ influx
"Pancreastatin (AAPGWPEDGAGKMGAEEAKPPEGKGEWAHSRQEEEEMARAPQVLFRG; Pancreastatin; UniProt P05059 266-312, looked up) [CgA-derived peptide (bCGA248–293)]",effect on glucose-evoked insulin secretion,pancreatic beta-cells,able to inhibit the glucose-evoked insulin secretion from pancreatic beta-cells
"rhodamine-labeled CAT: CAT conjugated with 5(6)-carboxytetramethyl rhodamine at the N-terminal extremity ({5(6)‑carboxytetramethylrhodamine}-SSMKLSFRARAYGFRGPGPQL; UniProt P10645 370-390, looked up)",detection in PMN cytoplasm (uptake),PMNs [3],detected in the cytoplasm
"rhodamine-labeled Hippocampal Cholinergic Neurostimulating Peptide (HCNP): control peptide, rhodamine-labeled Hippocampal Cholinergic Neurostimulating Peptide (HCNP) (rhodamine-PVDLSKWSGPL; reading uncertain; UniProt P30086 2-12, looked up)",Ca2+ influx induced by labelled control peptide,"human PMNs; PMNs, data not shown, method and concentration not stated",unable to induce Ca^2+ influx into PMNs
same,detection in PMN cytoplasm (uptake),PMNs [3],not detected in the cytoplasm
scrambled CAT: scrambled CAT peptide (SLPRRQLPSSAGMRGGKFAYF),interaction with CaM by SPR,calmodulin (CaM),inactive
